Results from US10472607B2, “Culture medium and method for inducing differentiation of pluripotent stem cells into neuroepithelial cells” (National Chung Hsing University, priority 2011, dated 2019).

Test system: TW1 hESCs
Assay: Comparison of additive groups: morphology and Oct4/Nestin immunofluorescence
Format: cell-based, human
Conditions: compared to group 3 (BIO + SB431542)
Text: The TW1 hESCs were divided into four groups according to the additives at culture day 3. The detail of the above steps refers to the examples 1 to 3.
Referring to the methods in examples 5 and 6, the protein expressions of Oct4 and Nestin in the each groups and the results were examined and shown in FIG. 9.

## fibroblast growth factor-2 [FGF2]
  compaction and neural rosettes formation: further enhanced
